Test results reported in paper PMC12595434, “Development of retinoid nuclear receptor pathway antagonists through targeting aldehyde dehydrogenase 1A3” (iScience, 2025).
Where “and” joins values, the source holds several entries; their conditions need not be identical. Identical values can stand only once.

Key:
LN229 cells = assay: Metabolomic profiling of treated cell lines (raw metabolite counts); assay type: cell-based, human; conditions: LN229:MBE, replicates
Source text: Supplement mmc8.xlsx, sheet "Supplement Table 7" | column: LN229:MBE

D2 = D2 (Homo sapiens, UniProt P14416); assay: Off-target profiling panel; assay type: binding; conditions: read-out: Inhibition by MBE1 at 10 μM (%)
HEK293 cells = assay: Metabolomic profiling of treated cell lines (raw metabolite counts); assay type: cell-based; conditions: HEK293_Inhibitor, replicates A-C
Source text: Supplement mmc8.xlsx, sheet "Supplement Table 7" | column: HEK293_Inhibitor_A; HEK293_Inhibitor_B; HEK293_Inhibitor_C

Eta antagonist = Eta antagonist (Homo sapiens, UniProt P25101); assay: Off-target profiling panel; assay type: cell-based; conditions: read-out: Inhibition by MBE1 at 10 μM (%)
HaCaT cells = assay: Dose-titration cytotoxicity analysis; conditions: 24 hour incubation, highest tested dose 10 μM
AsPC-1 cells = assay: Metabolomic profiling of treated cell lines (raw metabolite counts); assay type: cell-based; conditions: AsPC-1:MBE, replicates
Source text: Supplement mmc8.xlsx, sheet "Supplement Table 7" | column: AsPC-1:MBE

hKCNQ1 = hKCNQ1 (Homo sapiens, UniProt P51787); assay: Off-target profiling panel; assay type: cell-based; conditions: read-out: Inhibition by MBE1 at 10 μM (%)
LCK = LCK (Homo sapiens, UniProt P06239); assay: Off-target profiling panel; assay type: biochemical; conditions: read-out: Inhibition by MBE1 at 10 μM (%)
COX2 = COX2 (Homo sapiens, UniProt P35354); assay: Off-target profiling panel; assay type: biochemical; conditions: read-out: Inhibition by MBE1 at 10 μM (%)
ACHE = ACHE (Homo sapiens, UniProt P22303); assay: Off-target profiling panel; assay type: biochemical; conditions: read-out: Inhibition by MBE1 at 10 μM (%)
Chain of ACHE (P22303 32-614): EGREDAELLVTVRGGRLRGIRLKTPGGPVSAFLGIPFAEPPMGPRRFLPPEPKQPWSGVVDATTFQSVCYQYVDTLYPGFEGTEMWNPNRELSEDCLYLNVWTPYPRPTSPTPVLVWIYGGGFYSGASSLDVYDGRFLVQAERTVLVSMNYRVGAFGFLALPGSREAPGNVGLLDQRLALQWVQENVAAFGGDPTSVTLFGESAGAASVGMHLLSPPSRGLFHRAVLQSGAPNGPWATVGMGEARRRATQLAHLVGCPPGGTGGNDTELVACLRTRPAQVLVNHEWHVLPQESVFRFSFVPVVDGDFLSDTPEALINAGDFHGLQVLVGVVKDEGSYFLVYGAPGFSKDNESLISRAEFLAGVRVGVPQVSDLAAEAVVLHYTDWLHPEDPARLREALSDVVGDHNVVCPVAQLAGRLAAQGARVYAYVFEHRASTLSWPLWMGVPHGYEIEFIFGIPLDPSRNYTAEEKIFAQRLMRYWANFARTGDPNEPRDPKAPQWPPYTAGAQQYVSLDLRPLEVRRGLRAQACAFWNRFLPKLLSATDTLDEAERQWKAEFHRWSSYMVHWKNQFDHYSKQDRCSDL

Chain of LCK (P06239 whole entry): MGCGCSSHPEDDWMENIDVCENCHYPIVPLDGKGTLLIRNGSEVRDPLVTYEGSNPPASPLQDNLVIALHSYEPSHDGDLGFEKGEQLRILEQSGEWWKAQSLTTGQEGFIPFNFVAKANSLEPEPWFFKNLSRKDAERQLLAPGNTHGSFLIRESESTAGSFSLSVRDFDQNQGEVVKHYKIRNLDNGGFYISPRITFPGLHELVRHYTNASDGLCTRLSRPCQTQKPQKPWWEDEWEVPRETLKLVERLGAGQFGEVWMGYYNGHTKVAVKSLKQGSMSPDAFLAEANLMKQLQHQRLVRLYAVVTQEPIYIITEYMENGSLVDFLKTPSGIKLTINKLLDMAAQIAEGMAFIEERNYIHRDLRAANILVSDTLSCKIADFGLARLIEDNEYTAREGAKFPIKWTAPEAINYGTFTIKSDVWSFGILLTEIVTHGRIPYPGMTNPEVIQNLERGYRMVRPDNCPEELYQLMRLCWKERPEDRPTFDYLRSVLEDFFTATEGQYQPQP
Chain of Eta antagonist (P25101 21-427): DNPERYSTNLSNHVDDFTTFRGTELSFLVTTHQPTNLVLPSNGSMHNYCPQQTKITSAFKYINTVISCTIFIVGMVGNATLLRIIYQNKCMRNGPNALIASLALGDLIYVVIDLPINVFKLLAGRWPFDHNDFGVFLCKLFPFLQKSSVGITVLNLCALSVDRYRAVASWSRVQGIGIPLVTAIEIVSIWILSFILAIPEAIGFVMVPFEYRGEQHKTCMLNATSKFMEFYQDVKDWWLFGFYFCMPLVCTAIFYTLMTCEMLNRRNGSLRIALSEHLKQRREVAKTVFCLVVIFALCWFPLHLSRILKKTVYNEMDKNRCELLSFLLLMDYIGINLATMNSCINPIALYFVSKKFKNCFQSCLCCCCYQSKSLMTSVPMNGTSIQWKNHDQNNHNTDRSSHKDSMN
Chain of D2 (P14416 whole entry): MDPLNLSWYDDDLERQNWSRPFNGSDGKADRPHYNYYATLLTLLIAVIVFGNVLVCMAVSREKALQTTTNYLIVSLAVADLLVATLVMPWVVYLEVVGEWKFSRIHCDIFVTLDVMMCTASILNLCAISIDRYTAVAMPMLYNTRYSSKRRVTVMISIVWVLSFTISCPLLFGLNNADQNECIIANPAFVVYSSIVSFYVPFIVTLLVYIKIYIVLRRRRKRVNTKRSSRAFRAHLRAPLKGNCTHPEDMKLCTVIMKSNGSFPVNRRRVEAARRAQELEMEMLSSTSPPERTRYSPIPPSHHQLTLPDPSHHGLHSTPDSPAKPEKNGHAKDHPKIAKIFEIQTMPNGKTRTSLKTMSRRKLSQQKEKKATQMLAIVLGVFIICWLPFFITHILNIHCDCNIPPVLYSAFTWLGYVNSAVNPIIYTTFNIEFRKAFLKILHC
Chain of COX2 (P35354 18-604): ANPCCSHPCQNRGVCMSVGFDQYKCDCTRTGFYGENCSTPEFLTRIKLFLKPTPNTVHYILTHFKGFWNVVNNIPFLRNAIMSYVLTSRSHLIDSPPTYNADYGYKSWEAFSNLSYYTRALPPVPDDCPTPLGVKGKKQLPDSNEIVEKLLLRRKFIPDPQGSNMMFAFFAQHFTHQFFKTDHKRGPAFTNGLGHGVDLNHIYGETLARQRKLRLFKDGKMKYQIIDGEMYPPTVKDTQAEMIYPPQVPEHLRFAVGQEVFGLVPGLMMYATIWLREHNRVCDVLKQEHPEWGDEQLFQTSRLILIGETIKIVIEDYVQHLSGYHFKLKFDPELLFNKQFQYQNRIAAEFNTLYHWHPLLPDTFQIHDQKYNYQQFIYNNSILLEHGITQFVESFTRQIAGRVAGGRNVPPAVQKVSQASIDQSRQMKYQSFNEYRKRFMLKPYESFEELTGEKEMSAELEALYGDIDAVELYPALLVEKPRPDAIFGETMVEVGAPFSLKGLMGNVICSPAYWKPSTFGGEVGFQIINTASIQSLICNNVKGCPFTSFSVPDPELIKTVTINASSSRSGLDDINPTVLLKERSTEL

CCc1cnccc1C(=O)Nc1cc2c(cc1F)NC(=O)CC2 [MBE1, 3-ethyl-N-(7-fluoro-2-oxo-3,4-dihydro-1H-quinolin-6-yl)pyridine-4-carboxamide]
Raw counts of 2-Hydroxybutyric acid (LN229 cells): 261573 and 302862 and 279756
Raw counts of 3-Hydroxybutyric acid (LN229 cells): 1309454 and 1164963 and 1206122
Raw counts of 3-Phosphoglycerate (LN229 cells): 11596.7 and 6745.18 and 3724.31
Raw counts of 3-Phosphoserine (LN229 cells): 6232.78 and 2797.63 and 5215.65
Raw counts of 6-Phosphogluconate (LN229 cells): 5157.27 and 5734.83 and 2668.31
Raw counts of Carbamoyl phosphate (LN229 cells): 45195.2 and 38665.3 and 41961.6
Raw counts of Citrulline (LN229 cells): 498544 and 479590 and 504161
Raw counts of Cytidine (LN229 cells): 67589.2 and 84265.7 and 71881.1
Raw counts of Hypoxanthine (LN229 cells): 1333474 and 1740688 and 1516660
Raw counts of Isoleucine (LN229 cells): 1.29E+08 and 1.33E+08 and 1.18E+08
Raw counts of Lactate (LN229 cells): 3.62E+08 and 3.37E+08 and 3.31E+08
Raw counts of Leucine (LN229 cells): 1.02E+08 and 1.11E+08 and 1.01E+08
Raw counts of Methionine (LN229 cells): 1.89E+07 and 2.12E+07 and 1.99E+07
Raw counts of N-acetyl-glutamine (LN229 cells): 31448.3 and 20555.9 and 36320.3
Raw counts of Orotate (LN229 cells): 0
Raw counts of Phenylalanine (LN229 cells): 7.59E+07 and 8.45E+07 and 7.68E+07
Raw counts of Phosphoenolpyruvate (LN229 cells): 0 and 2071.2 and 2356.81
Raw counts of Pyridoxine (LN229 cells): 4.91E+07 and 5.30E+07 and 4.89E+07
Raw counts of Pyruvate (LN229 cells): 2231037 and 2192759 and 1890595
Raw counts of Ribitol (LN229 cells): 1641581 and 2032681 and 3007411
Raw counts of Sorbitol (LN229 cells): 2.02E+07 and 2.14E+07 and 2.12E+07
Raw counts of Taurine (LN229 cells): 1.22E+07 and 1.24E+07 and 1.15E+07
Raw counts of Tryptophan (LN229 cells): 1.21E+07 and 1.27E+07 and 1.15E+07
Raw counts of Tyrosine (LN229 cells): 4.34E+07 and 4.46E+07 and 4.65E+07
Raw counts of UDP (LN229 cells): 108325 and 86766.9 and 84670.8
Raw counts of Uracil (LN229 cells): 1116835 and 1114912 and 1017401
Raw counts of Uridine (LN229 cells): 932418 and 1052824 and 956012
Raw counts of Valine (LN229 cells): 6.74E+07 and 7.26E+07 and 6.71E+07
Raw counts of Xanthine (LN229 cells): 9846835 and 1.10E+07 and 1.04E+07
inhibition at 10 µM (D2): 1.45%
Raw counts of 2-Hydroxybutyric acid (HEK293 cells): 460406 and 376147 and 351707
Raw counts of 3-Hydroxybutyric acid (HEK293 cells): 2036524 and 1752460 and 1814028
Raw counts of 3-Phosphoglycerate (HEK293 cells): 54741.2 and 47239.6 and 67920.5
Raw counts of 3-Phosphoserine (HEK293 cells): 379486 and 687080 and 597417
Raw counts of 6-Phosphogluconate (HEK293 cells): 18526.1 and 6100.06 and 8926.16
Raw counts of Carbamoyl phosphate (HEK293 cells): 141074 and 139557 and 164484
Raw counts of Citrulline (HEK293 cells): 520045 and 463794 and 470630
Raw counts of Cytidine (HEK293 cells): 7575.12 and 7385.3 and 7444.6
Raw counts of Hypoxanthine (HEK293 cells): 234438 and 380137 and 398453
Raw counts of Isoleucine (HEK293 cells): 1.16E+08 and 1.15E+08 (2×)
Raw counts of Lactate (HEK293 cells): 5.47E+08 and 4.80E+08 and 4.40E+08
Raw counts of Leucine (HEK293 cells): 9.35E+07 and 8.69E+07 and 8.73E+07
Raw counts of Methionine (HEK293 cells): 2.07E+07 and 2.11E+07 and 2.08E+07
Raw counts of N-acetyl-glutamine (HEK293 cells): 1122707 and 1247401 and 1071948
Raw counts of Orotate (HEK293 cells): 98388.4 and 120085 and 73533.2
Raw counts of Phenylalanine (HEK293 cells): 8.50E+07 and 7.66E+07 and 8.04E+07
Raw counts of Phosphoenolpyruvate (HEK293 cells): 10515.5 and 13057.1 and 9934.64
Raw counts of Pyridoxine (HEK293 cells): 4.65E+07 and 4.40E+07 and 4.42E+07
Raw counts of Pyruvate (HEK293 cells): 7987114 and 6360434 and 6733166
Raw counts of Ribitol (HEK293 cells): 2730293 and 2993915 and 2689879
Raw counts of Sorbitol (HEK293 cells): 1.69E+07 and 1.55E+07 and 1.59E+07
Raw counts of Taurine (HEK293 cells): 2.13E+07 and 2.37E+07 and 2.28E+07
Raw counts of Tryptophan (HEK293 cells): 1.16E+07 and 1.11E+07 and 1.10E+07
Raw counts of Tyrosine (HEK293 cells): 4.24E+07 and 4.04E+07 and 3.95E+07
Raw counts of UDP (HEK293 cells): 175249 and 191418 and 196338
Raw counts of Uracil (HEK293 cells): 1015162 and 942022 and 907732
Raw counts of Uridine (HEK293 cells): 82140.1 and 83430.9 and 107857
Raw counts of Valine (HEK293 cells): 7.12E+07 and 6.86E+07 and 6.72E+07
Raw counts of Xanthine (HEK293 cells): 7637154 and 6442670 and 6627934
inhibition at 10 µM (Eta antagonist): 4.57%
nonspecific cytotoxicity (in words) (HaCaT cells): nontoxic
Raw counts of 2-Hydroxybutyric acid (AsPC-1 cells): 407527 and 409338 and 391016
Raw counts of 3-Hydroxybutyric acid (AsPC-1 cells): 935326 and 777510 and 811161
Raw counts of 3-Phosphoglycerate (AsPC-1 cells): 27569.7 and 29653.8 and 33692.4
Raw counts of 3-Phosphoserine (AsPC-1 cells): 0
Raw counts of 6-Phosphogluconate (AsPC-1 cells): 2283.86 and 2700.65 and 2716.13
Raw counts of Carbamoyl phosphate (AsPC-1 cells): 77497 and 91797.1 and 80487.7
Raw counts of Citrulline (AsPC-1 cells): 767940 and 822514 and 761078
Raw counts of Cytidine (AsPC-1 cells): 42547.3 and 33951.9 and 31568.3
Raw counts of Hypoxanthine (AsPC-1 cells): 6602890 and 6349420 and 6667202
Raw counts of Isoleucine (AsPC-1 cells): 8463643 and 7729570 and 8029520
Raw counts of Lactate (AsPC-1 cells): 2.84E+08 and 2.40E+08 and 2.49E+08
Raw counts of Leucine (AsPC-1 cells): 1.56E+07 and 1.48E+07 and 1.55E+07
Raw counts of Methionine (AsPC-1 cells): 3519797 and 3454298 and 3337800
Raw counts of N-acetyl-glutamine (AsPC-1 cells): 14303 and 11323.4 and 0
Raw counts of Orotate (AsPC-1 cells): 62546.3 and 65785 and 58119.5
Raw counts of Phenylalanine (AsPC-1 cells): 9403483 and 9101309 and 9197218
Raw counts of Phosphoenolpyruvate (AsPC-1 cells): 23786.2 and 24455.1 and 27616
Raw counts of Pyridoxine (AsPC-1 cells): 1078977 and 951150 and 1075404
Raw counts of Pyruvate (AsPC-1 cells): 3.56E+07 and 3.45E+07 and 3.67E+07
Raw counts of Ribitol (AsPC-1 cells): 1829543 and 1600997 and 2014101
Raw counts of Sorbitol (AsPC-1 cells): 2.37E+07 and 2.26E+07 and 2.62E+07
Raw counts of Taurine (AsPC-1 cells): 5285632 and 4263876 and 4897168
Raw counts of Tryptophan (AsPC-1 cells): 2709598 and 2662217 and 2730749
Raw counts of Tyrosine (AsPC-1 cells): 5411932 and 5220208 and 5418708
Raw counts of UDP (AsPC-1 cells): 31905 and 38800.3 and 38337.9
Raw counts of Uracil (AsPC-1 cells): 1743558 and 1602379 and 1692033
Raw counts of Uridine (AsPC-1 cells): 1071683 and 996648 and 1101788
Raw counts of Valine (AsPC-1 cells): 1.20E+07 and 1.17E+07 and 1.23E+07
Raw counts of Xanthine (AsPC-1 cells): 6452708 and 5994216 and 6427826
inhibition at 10 µM (hKCNQ1): 11.9%
inhibition at 10 µM (LCK): -2.81%
inhibition at 10 µM (COX2): -1.05%
inhibition at 10 µM (ACHE): 5.81%
